Assay results taken from ChEMBL document CHEMBL1150582, “Brominated labdane-type diterpenoids from an Okinawan Laurencia sp” (J Nat Prod, 2002).
Activity calls are given as the source filed them.

Tests used:
Format in all cases: functional, organism-based
Salmonella sp. = assay: Antibacterial activity against Salmonella sp. by paper disk diffusion method
Staphylococcus aureus = assay: Antibacterial activity against Staphylococcus aureus by paper disk diffusion method
[1] = test system: Staphylococcus epidermidis; assay: Antibacterial activity against Staphylococcus epidermidis by paper disk diffusion method
Pseudomonas sp. = assay: Antibacterial activity against Pseudomonas sp. by paper disk diffusion method
Escherichia coli = assay: Antibacterial activity against Escherichia coli by paper disk diffusion method

Measured: Activity

C=C[C@@]1(C)CC[C@H]2[C@]3(C)[C@@H](OC(C)=O)C[C@@H](Br)C(C)(C)[C@H]3[C@@H](O)C[C@]2(C)O1
inactive: Salmonella sp. | Staphylococcus aureus | [1] | Pseudomonas sp. | Escherichia coli

C=C[C@@]1(C)CC[C@H]2[C@]3(C)C(=O)C[C@@H](Br)C(C)(C)[C@H]3[C@@H](O)C[C@]2(C)O1
inactive: Salmonella sp. | Staphylococcus aureus | [1] | Pseudomonas sp. | Escherichia coli
